# Results published in article PMC8151276, “An Integrated Approach toward NanoBRET Tracers for Analysis of GPCR Ligand Engagement” (Molecules, 2021).
# What was measured:
# LGR4 = target: T1, LGR4 (Homo sapiens, UniProt Q9BXB1); experiment: NanoBRET screen HiBiT-LGR4 in HEK293; format: binding
# T1 construct: purchased Promega (in-house HiBiT-GPCR construct library, NanoBRET)
# T1 sequence (Q9BXB1 25-951): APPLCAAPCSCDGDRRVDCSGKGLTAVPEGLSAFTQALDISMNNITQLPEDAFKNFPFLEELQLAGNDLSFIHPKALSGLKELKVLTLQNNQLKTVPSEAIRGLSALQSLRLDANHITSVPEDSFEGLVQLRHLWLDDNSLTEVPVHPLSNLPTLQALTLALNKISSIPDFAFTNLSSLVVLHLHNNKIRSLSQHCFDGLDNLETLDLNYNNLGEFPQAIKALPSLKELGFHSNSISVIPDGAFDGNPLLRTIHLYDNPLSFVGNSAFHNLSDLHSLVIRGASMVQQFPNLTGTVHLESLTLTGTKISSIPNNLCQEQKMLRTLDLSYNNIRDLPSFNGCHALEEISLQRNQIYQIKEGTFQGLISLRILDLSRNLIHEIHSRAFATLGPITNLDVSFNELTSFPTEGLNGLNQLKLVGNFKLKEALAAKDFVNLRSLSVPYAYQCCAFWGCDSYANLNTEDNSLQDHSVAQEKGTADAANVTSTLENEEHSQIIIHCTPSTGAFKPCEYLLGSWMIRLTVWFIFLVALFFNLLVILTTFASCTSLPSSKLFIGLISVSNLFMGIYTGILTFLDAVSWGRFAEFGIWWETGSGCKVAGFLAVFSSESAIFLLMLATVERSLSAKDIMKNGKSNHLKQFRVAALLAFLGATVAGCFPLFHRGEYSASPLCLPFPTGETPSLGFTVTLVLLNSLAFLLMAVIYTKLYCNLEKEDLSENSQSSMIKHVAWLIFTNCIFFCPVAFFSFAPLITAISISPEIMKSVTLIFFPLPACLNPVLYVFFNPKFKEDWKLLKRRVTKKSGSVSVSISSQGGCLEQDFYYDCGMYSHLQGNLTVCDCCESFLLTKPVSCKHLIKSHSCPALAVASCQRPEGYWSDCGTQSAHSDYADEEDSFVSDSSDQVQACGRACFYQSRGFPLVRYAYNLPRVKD
# Description: (§1) Each tracer candidate was screened across the entire library of HiBiT-GPCR constructs using NanoBRET as the detection modality. As depicted in Figure 4A, the specificity of interactions was evaluated through decrease in BRET due to competitive displacement of a bound tracer by excess parental compound. Each tracer was analyzed for binding to each HiBiT-GPCR fusion in the absence and in the presence of competing parental compound. Briefly, HEK293 cells were transfected with HiBiT-GPCR constructs diluted into promoterless DNA to reduce expression and maximize translocation to the cell surface. Each tracer candidate was then screened at concentrations of 1 μM and 0.1 μM across cells expressing these fusions. Cells were treated for 1.5 h with tracer either alone or in the presence of 20 μM competing parental compound (i.e., control). BRET was measured upon addition of purified LgBiT and subsequent complementation with HiBiT genetically fused to a GPCR. The specificity of interactions was assessed through a decrease in BRET signal due to competitive displacement of the bound tracer. To further gauge the robustness of these interactions, the fold response over the control (i.e., BRETtracer/BRETcontrol) was calculated. We chose a 1.5-fold response, which translates to ≥7-fold signal over noise as the minimal threshold required to score an interaction as positive. […]. Below we highlight the screening results obtained for our exemplary fluorescent tracers based on Clozapine, Amitriptyline and AZD1283.
# (§2) HiBiT-GPCR DNA constructs were diluted in 10 mM Tris pH 8 to a final concentration of 0.01 μg/μL, arrayed in 96-well plates and stored at −20 °C. For transfection, HEK293 cells were suspended in Opti-MEM (without phenol red) supplemented with 2% fetal bovine serum (Seradigm) and 100 units/mL penicillin–streptomycin (Gibco) at a final concentration of 220,000 cells/mL and dispensed into white 96-well plates at 90 μL/well. Subsequent transfections and screens were carried using an Agilent Bravo Automated Liquid Handling Platform. First, the 96-well HiBiT DNA arrays were diluted 25-fold in Opti-MEM (without serum or phenol red) to a final concentration of 0.0004 μg/μL and 20 μL of the diluted DNAs were transferred into new 96-well plates. Next, promoterless carrier DNA (1 μg/μL) was diluted 25-fold (0.04 μg/μL) and then dispensed into the diluted arrays at 20 μL/well. Following brief mixing, Viafect transfection reagent (Promega) diluted 16-fold into Opti-MEM was dispensed into the plates at 40 μL/well. After mixing by pipetting, plates were incubated for 10 min on the pipetting station deck. The DNA-transfection reagent complexes were then added to plates containing cells. To facilitate the screen, 10 μL of DNA-transfection reagent complexes were added in duplicates to the top 4 and bottom 4 rows, resulting in two identical 48-well arrays per plate. Plates with transfected cells were incubated for 18–20 h at 37 °C/5% CO2. A screen of each tracer across the entire library using two different concentrations requires duplicate plates of transfected cells. Depending on the number of tracers being screened, transfections can be scaled up using the same ratios. The next day, for each tracer, four 20× screening solutions in tracer dilution buffer (Promega) were prepared: two duplicates at final concentration of 20 μM and two duplicates at a final concentration of 2 μM. A competing unmodified compound was added to one of each duplicate at a final concentration of 400 μM. The four resulting solutions were diluted 4-fold in Opti-MEM without serum or phenol red to generate 5× solutions (5 µM and 0.5 µM tracer +/− 100 μM competing compound). To screen the library, a BioTek MultiFlo FX liquid dispenser was used to dispense 22.5 µL of tracer solution to the top 4 rows and 22.5 µL tracer + competing compound solution to the 4 bottom rows. Plates were briefly mixed on an orbital shaker and incubated for 1.5 h at room temperature. […]
# HCRTR1 = target: T2, HCRTR1 (Homo sapiens, UniProt O43613); experiment: NanoBRET screen HiBiT-HCRTR1 in HEK293; format: binding
# T2 construct: purchased Promega (in-house HiBiT-GPCR construct library, NanoBRET)
# T2 sequence (O43613 1-425): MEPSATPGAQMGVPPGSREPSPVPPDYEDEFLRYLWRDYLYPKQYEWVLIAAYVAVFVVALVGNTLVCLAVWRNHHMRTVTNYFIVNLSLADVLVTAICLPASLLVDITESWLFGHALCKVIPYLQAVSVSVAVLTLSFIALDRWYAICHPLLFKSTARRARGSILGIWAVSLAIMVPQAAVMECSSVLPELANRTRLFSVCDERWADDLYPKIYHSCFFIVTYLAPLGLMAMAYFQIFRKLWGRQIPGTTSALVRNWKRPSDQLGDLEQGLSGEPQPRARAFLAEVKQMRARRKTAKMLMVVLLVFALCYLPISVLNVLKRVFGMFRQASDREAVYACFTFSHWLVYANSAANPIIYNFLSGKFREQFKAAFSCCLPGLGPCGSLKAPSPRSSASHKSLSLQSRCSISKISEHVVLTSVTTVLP
# Description: as §1, §2
smiles,measurement,setting,value
CCOC(=O)c1cc(C#N)c(N2CCC(C(=O)NS(=O)(=O)Cc3ccccc3/C=C/C(=O)NCCNC(=O)CCc3ccc4n3[B-](F)(F)[N+]3=C(c5ccc[nH]5)C=CC3=C4)CC2)nc1C [AZD1283-1-NB590],NanoBRET Fold Response,"LGR4; LGR4, 0.1μM",1.01
same,NanoBRET Fold Response,"LGR4; LGR4, 1μM",0.97
same,NanoBRET Fold Response,"HCRTR1; HCRTR1, 0.1μM",1.00
same,NanoBRET Fold Response,"HCRTR1; HCRTR1, 1μM",1.09
N#CN=C(NCCCOc1cccc(CN2CCCCC2)c1)NCCNC(=O)CCOCCOCCOCCOCCNC(=O)CCc1ccc2n1[B-](F)(F)[N+]1=C(c3ccc[nH]3)C=CC1=C2 [Aminopotentidine-2-NB590],NanoBRET Fold Response,"LGR4; LGR4, tracer 0.1μM",1.01
same,NanoBRET Fold Response,"LGR4; LGR4, tracer 1μM",1.02
same,NanoBRET Fold Response,"HCRTR1; HCRTR1, tracer 0.1μM",0.98
same,NanoBRET Fold Response,"HCRTR1; HCRTR1, tracer 1μM",0.95
CN(C)CCC=C1c2ccccc2CCc2ccc(C(=O)NCCNC(=O)CCOCCOCCOCCOCCNC(=O)CCc3ccc4n3[B-](F)(F)[N+]3=C(c5ccc[nH]5)C=CC3=C4)cc21 [Amitriptyline-a-2-NB590],NanoBRET Fold Response,HCRTR1; tracer at 0.1μM,1.00
same,NanoBRET Fold Response,HCRTR1; tracer at 1μM,1.00
CN(C)CCC=C1c2ccccc2CCc2ccc(C(=O)NCCNC(=O)CCOCCOCCOCCOCCNC(=O)CCc3ccc4n3[B-](F)(F)[N+]3=C(c5ccc[nH]5)C=CC3=C4)cc21 [Amitriptyline-b-2-NB590],NanoBRET Fold Response,LGR4; tracer at 0.1μM,1.00
same,NanoBRET Fold Response,LGR4; tracer at 1μM,0.98
same,NanoBRET Fold Response,"HCRTR1; tracer at 0.1μM, listed as amitriptyline-b-2-NB590",1.08
same,NanoBRET Fold Response,"HCRTR1; tracer at 1μM, listed as amitriptyline-b-2-NB590",0.91
COc1ccc2c(n1)c(CCNC(C)=O)cn2CCNC(=O)CCc1ccc2n1[B-](F)(F)[N+]1=C(c3ccc[nH]3)C=CC1=C2 [Azamelatonin-1-NB590],NanoBRET Fold Response,LGR4; 0.1μM tracer,1.20
same,NanoBRET Fold Response,LGR4; 1μM tracer,0.99
same,NanoBRET Fold Response,HCRTR1; 0.1μM tracer,0.93
same,NanoBRET Fold Response,HCRTR1; 1μM tracer,0.84
COc1ccc2[nH]c(-c3ccc(CNC(=O)CCOCCOCCOCCOCCNC(=O)CCc4ccc5n4[B-](F)(F)[N+]4=C(c6ccc[nH]6)C=CC4=C5)cc3)c(CCNC(C)=O)c2n1 [AzomelatoninICO9-2-NB590],NanoBRET Fold Response,LGR4; 0.1μM tracer,1.10
same,NanoBRET Fold Response,LGR4; 1μM tracer,1.00
same,NanoBRET Fold Response,HCRTR1; 0.1μM tracer,0.60
same,NanoBRET Fold Response,HCRTR1; 1μM tracer,0.95
O=C(CCOCCOCCOCCOCCNC(=O)CCc1ccc2n1[B-](F)(F)[N+]1=C(c3ccc[nH]3)C=CC1=C2)NCCCN1CCN(C2=Nc3cc(Cl)ccc3Nc3ccccc32)CC1 [Clozapine-a-2-NB590],NanoBRET Fold Response,"LGR4; LGR4, 0.1μM tracer",1.02
same,NanoBRET Fold Response,"LGR4; LGR4, 1μM tracer",0.99
same,NanoBRET Fold Response,"HCRTR1; HCRTR1, 0.1μM tracer",0.89
same,NanoBRET Fold Response,"HCRTR1; HCRTR1, 1μM tracer",0.98
CN1CCN(C2=Nc3cc(Cl)ccc3Nc3ccc(CNC(=O)CCOCCOCCOCCOCCNC(=O)CCc4ccc5n4[B-](F)(F)[N+]4=C(c6ccc[nH]6)C=CC4=C5)cc32)CC1 [Clozapine-b-2-NB590],NanoBRET Fold Response,"LGR4; LGR4, 0.1μM tracer",1.00
same,NanoBRET Fold Response,"LGR4; LGR4, 1μM tracer",1.04
same,NanoBRET Fold Response,"HCRTR1; HCRTR1, 0.1μM tracer",1.04
same,NanoBRET Fold Response,"HCRTR1; HCRTR1, 1μM tracer",1.01
CN1CCN(C2=Nc3cc(Cl)ccc3N(CC(=O)NCCOCCOCCOCCOCCNC(=O)CCc3ccc4n3[B-](F)(F)[N+]3=C(c5ccc[nH]5)C=CC3=C4)c3ccccc32)CC1 [Clozapine-c-2-NB590],NanoBRET Fold Response,"LGR4; LGR4, 0.1μM tracer",0.96
same,NanoBRET Fold Response,"LGR4; LGR4, 1μM tracer",1.03
same,NanoBRET Fold Response,"HCRTR1; HCRTR1, 0.1μM tracer",0.98
same,NanoBRET Fold Response,"HCRTR1; HCRTR1, 1μM tracer",1.00
O=C(CCOCCOCCOCCOCCNC(=O)CCc1ccc2n1[B-](F)(F)[N+]1=C(c3ccc[nH]3)C=CC1=C2)NCCCN1CCN(C2=Nc3ccccc3Oc3ccc(Cl)cc32)CC1 [Loxapine-a-2-NB590],NanoBRET Fold Response,"LGR4; LGR4, tracer 0.1μM",0.97
same,NanoBRET Fold Response,"LGR4; LGR4, tracer 1μM",1.04
same,NanoBRET Fold Response,"HCRTR1; HCRTR1, tracer 0.1μM",0.93
same,NanoBRET Fold Response,"HCRTR1; HCRTR1, tracer 1μM",1.09
COc1ccccc1N1CCN(CCCCN2C(=O)c3ccc(CNC(=O)CCOCCOCCOCCOCCNC(=O)CCc4ccc5n4[B-](F)(F)[N+]4=C(c6ccc[nH]6)C=CC4=C5)cc3C2=O)CC1 [NAN-190-2-NB590],NanoBRET Fold Response,"LGR4; LGR4, tracer 0.1μM",1.09
same,NanoBRET Fold Response,"LGR4; LGR4, tracer 1μM",0.99
COc1ccccc1N1CCN(CCCCN2C(=O)c3ccc(CNC(=O)CCOCCNC(=O)c4ccc(CNC(=O)CCc5ccc6n5[B-](F)(F)[N+]5=C(c7ccc[nH]7)C=CC5=C6)cc4)cc3C2=O)CC1 [NAN-190-3-NB590],NanoBRET Fold Response,"LGR4; LGR4, tracer 0.1μM",0.88
same,NanoBRET Fold Response,"LGR4; LGR4, tracer 1μM",0.95
same,NanoBRET Fold Response,"HCRTR1; HCRTR1, tracer 0.1μM",0.98
same,NanoBRET Fold Response,"HCRTR1; HCRTR1, tracer 1μM",0.91
O=C(CCc1ccc2n1[B-](F)(F)[N+]1=C(c3ccc[nH]3)C=CC1=C2)NCc1ccc(C(=O)NCCOCCC(=O)N[C@@H]2CC[C@@]3(O)[C@H]4Cc5ccc(O)c6c5[C@@]3(CCN4CC3CC3)[C@H]2O6)cc1 [Naltrexone-3-NB590],NanoBRET Fold Response,"LGR4; LGR4, tracer 0.1μM",0.94
same,NanoBRET Fold Response,"LGR4; LGR4, tracer 1μM",0.87
same,NanoBRET Fold Response,"HCRTR1; HCRTR1, tracer 0.1μM",0.98
same,NanoBRET Fold Response,"HCRTR1; HCRTR1, tracer 1μM",0.88
Cc1cc2c(s1)Nc1ccccc1N=C2N1CCN(CCCNC(=O)CCOCCOCCOCCOCCNC(=O)CCc2ccc3n2[B-](F)(F)[N+]2=C(c4ccc[nH]4)C=CC2=C3)CC1 [Olanzapine-a-2-NB590],NanoBRET Fold Response,"LGR4; LGR4, tracer 0.1μM",0.98
same,NanoBRET Fold Response,"LGR4; LGR4, tracer 1μM",1.30
same,NanoBRET Fold Response,"HCRTR1; HCRTR1, tracer 0.1μM",0.98
same,NanoBRET Fold Response,"HCRTR1; HCRTR1, tracer 1μM",0.99
O=C(CCc1ccc2n1[B-](F)(F)[N+]1=C(c3ccc[nH]3)C=CC1=C2)NCc1ccc(C(=O)NCCOCCOCCNCC(O)COc2cccc3ccccc23)cc1 (centres unmarked) [Propranolol-3-NB590],NanoBRET Fold Response,"LGR4; LGR4, 0.1μM",0.97
same,NanoBRET Fold Response,"LGR4; LGR4, 1μM",1.02
same,NanoBRET Fold Response,"HCRTR1; HCRTR1, 0.1μM",1.01
same,NanoBRET Fold Response,"HCRTR1; HCRTR1, 1μM",0.94
